Among the data in patent publication US7858647B2, “N-[1,3,4]-thiadiazol-2-yl-benzene sulfonamides, pharmaceutical compositions thereof and methods for their therapeutic use” (Sanofi-Aventis, priority 2005, dated 2010) are EC50 values, retold here.

In general, EC50 refers to the concentration needed to bring the measured effect to its halfway point. A lower EC50 goes with greater potency.

Molecules are shown by their SMILES.

For the assay, the target named is T1, human PPARdelta (Homo sapiens, UniProt Q03181).
T1 construct: amino acids S139-Y441; expressed in transfected cells
T1 sequence (Q03181 139-441): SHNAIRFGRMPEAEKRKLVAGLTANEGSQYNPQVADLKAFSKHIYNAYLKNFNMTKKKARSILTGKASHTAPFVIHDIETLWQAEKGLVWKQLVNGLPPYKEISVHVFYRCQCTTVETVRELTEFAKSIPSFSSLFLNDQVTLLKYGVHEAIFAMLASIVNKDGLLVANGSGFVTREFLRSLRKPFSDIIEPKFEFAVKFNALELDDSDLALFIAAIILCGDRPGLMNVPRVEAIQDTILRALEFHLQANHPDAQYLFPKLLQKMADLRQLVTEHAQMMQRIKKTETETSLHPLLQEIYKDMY
Kind of assay: Cellular PPARdelta assay (luciferase reporter, stably transfected HEK cell line). Format: cell-based. To be noted: GR-GAL4-humanPPARdelta-LBD. The method, then: The activity of PPARalpha agonists is determined in a 3-day assay which is described below:
The PPARalpha reporter cell line is cultivated to 80% confluence in DMEM (#41965-039, Invitrogen) which is mixed with the following additions: 10% cs-FCS (fetal calf serum; #SH-30068.03, Hyclone), 0.5 mg/ml zeocin (#R250-01, Invitrogen), 0.5 mg/ml G418 (#10131-027, Invitrogen), 1% penicillin-streptomycin solution (#15140-122, Invitrogen) and 2 mM L-glutamine (#25030-024, Invitrogen). The cultivation takes place in standard cell culture bottles (#353112, Becton Dickinson) in a cell culture incubator at 37° C. in the presence of 5% CO2. The 80%-confluent cells are washed once with 15 ml of PBS (#14190-094, Invitrogen), treated with 3 ml of trypsin solution (#25300-054, Invitrogen) at 37° C. for 2 min, taken up in 5 ml of the DMEM described and counted in a cell counter. After dilution to 500.000 cells/ml, 35,000 cells are seeded in each well of a 96 well microtiter plate with a clear plastic base (#3610, Corning Costar). The plates are incubated in the cell culture incubator at 37° C. and 5% CO2 for 24 h.
PPARalpha Agonists to be Tested are Dissolved in DMSO in a Concentration of 10 mM. This stock solution is diluted in DMEM (#41965-039, Invitrogen) which is mixed with 5% cs-FCS (#SH-30068.03, Hyclone), 2 mM L-glutamine (#25030-024, Invitrogen) and the previously described antibiotics (zeocin, G418, penicillin and streptomycin). Test substances are tested in 11 different concentrations in the range from 10 μM to 100 pM.
The medium of the PPARalpha reporter cell line seeded on day 1 is completely removed by aspiration, and the test substances diluted in medium are immediately added to the cells. The dilution and addition of the substances is carried out by a robot (Beckman FX). The final volume of the test substances diluted in medium is 100 μl per well of a 96 well microtiter plate. The DMSO concentration in the assay is less than 0.1% v/v in order to avoid cytotoxic effects of the solvent.
The assay plates are incubated in an incubator at 37° C. and 5% CO2 for 24 h.
The PPARalpha reporter cells treated with the test substances are removed from the incubator, and the medium is aspirated off. The cells are lyzed by pipetting 50 μl of Bright Glo reagent (from Promega) into each well of a 96 well microtiter plate. After incubation at room temperature in the dark for 10 minutes, the microtiter plates are measured in the luminometer (Trilux from Wallac). The measuring time for each well of a microtiter plate is 1 sec.
The raw data from the luminometer are transferred into a Microsoft Excel file. Dose-effect plots and EC50 values of PPAR agonists are calculated using the XL.Fit program as specified by the manufacturer (IDBS).
The potency of substances which bind to human PPARdelta and activate it in an agonistic manner is analyzed using a stably transfected HEK cell line (HEK=human embryo kidney) which is referred to here as PPARdelta reporter cell line. In analogy to the assay described for PPARalpha, the PPARdelta reporter cell line also contains two genetic elements, a luciferase reporter element (pdeltaM-GAL4-Luc-Zeo) and a PPARdelta fusion protein (GR-GAL4-humanPPARdelta-LBD) which mediates expression of the luciferase reporter element depending on a PPARdelta ligand. The stably and constitutively expressed fusion protein GR-GAL4-humanPPARdelta-LBD binds in the cell nucleus of the PPARdelta reporter cell line via the GAL4 protein portion to the GAL4 DNA binding motifs 5′-upstream of the luciferase reporter element which is stably integrated in the genome of the cell line. There is only little expression of the luciferase reporter gene in the absence of a PPARdelta ligand if fatty acid-depleted fetal calf serum (cs-FCS) is used in the assay. PPARdelta ligands bind and activate the PPARdelta fusion protein and thereby stimulate expression of the luciferase reporter gene. […]
Background: Reporter assays use an easily measured gene product as a stand-in for the process of interest.
The compound `CC(C)(C)c1nnc(NS(=O)(=O)c2ccc(CCNC(=O)c3cc(Cl)ccc3Cl)cc2)s1` [Example 35, N-{2-[4-(5-tert-Butyl-[1,3,4]thiadiazol-2-ylsulfamoyl)-phenyl]-ethyl}-2,5-dichloro-benzamide] showed an EC50 of 2800 nM. On to `CCOc1cc(C(F)(F)F)ccc1C(=O)NCC(C)c1ccc(S(=O)(=O)Nc2nnc(C(C)C)s2)cc1` (racemic) [Example 43, 2-Ethoxy-N-{2-[4-(5-isopropyl-[1,3,4]thiadiazol-2-ylsulfamoyl)-phenyl]-propyl}-4-trifluoromethyl-benzamide], for which the EC50 is 20 nM. The result for `COc1ccc(C(C)(C)C)cc1C(=O)NCCc1ccc(S(=O)(=O)Nc2nnc(C(C)C)s2)cc1` [Example 2, 5-tert-Butyl-N-{2-[4-(5-isopropyl-[1,3,4]thiadiazol-2-ylsulfamoyl)-phenyl]-ethyl}-2-methoxy-benzamide] reads 440 nM; that for `COc1ccc(C(=O)NCCc2ccc(S(=O)(=O)Nc3nnc(C(C)C)s3)cc2)c(OC)n1` [Example 5, N-{2-[4-(5-Isopropyl-[1,3,4]thiadiazol-2-ylsulfamoyl)-phenyl]-ethyl}-2,6-dimethoxy-nicotinamide], 1100 nM. The result for `COc1cc(C(F)(F)F)ccc1C(=O)NCCc1ccc(S(=O)(=O)Nc2nnc(C(C)C)s2)cc1` [Example 1, N-{2-[4-(5-Isopropyl-[1,3,4]thiadiazol-2-ylsulfamoyl)-phenyl]-ethyl}-2-methoxy-4-trifluoromethyl-benzamide] reads 110 nM.

Regarding `Cc1ccc(Cl)cc1C(=O)NCCc1ccc(S(=O)(=O)Nc2nnc(-c3ccccc3)s2)cc1` [Example 32, 5-Chloro-2-methyl-N-{2-[4-(5-phenyl-[1,3,4]thiadiazol-2-ylsulfamoyl)-phenyl]-ethyl}-benzamide], the EC50 was 3610 nM. The result for `CCOc1cc(C(F)(F)F)ccc1C(=O)NCC(C)c1ccc(S(=O)(=O)Nc2nnc(C(C)C)s2)cc1` (single isomer, unassigned) [Example 43a] reads 40 nM; that for `CCOc1cc(C(F)(F)F)ccc1C(=O)NCC(CC)c1ccc(S(=O)(=O)Nc2nnc(C(C)C)s2)cc1` (single isomer, unassigned) [Example 44b], 10 nM; that for `CCOc1cc(C(F)(F)F)ccc1C(=O)NCC(C)c1ccc(S(=O)(=O)Nc2nnc(C(C)C)s2)cc1` (single isomer, unassigned) [Example 43b], 20 nM. `Cc1cc(Br)c(C(=O)NCCc2ccc(S(=O)(=O)Nc3nnc(C(C)C)s3)cc2)s1` [Example 47, 3-Bromo-5-methyl-thiophene-2-carboxylic acid {2-[4-(5-isopropyl-[1,3,4]thiadiazol-2-ylsulfamoyl)-phenyl]-ethyl}-amide] gave an EC50 of 60 nM. In turn, `CC(C)c1nnc(NS(=O)(=O)c2ccc(CNC(=O)c3ccc(C(F)(F)F)cc3)cc2)s1` [Example 24, N-[4-(5-Isopropyl-[1,3,4]thiadiazol-2-ylsulfamoyl)-benzyl]-4-trifluoromethyl-benzamide] showed an EC50 of 760 nM. Compound `CCOc1cc(C(F)(F)F)ccc1C(=O)NCC(CC)c1ccc(S(=O)(=O)Nc2nnc(C(C)C)s2)cc1` (single isomer, unassigned) [Example 44a] came in with an EC50 of 40 nM.
